# According to US20230157952A1, “METHOD FOR IMPROVING THE STABILITY OF A PHARMACEUTICAL COMPOSITION COMPRISING A HIGH PENETRATION DRUG, AND THE PHARMACEUTICAL COMPOSITION OBTAINED THEREFROM” (Techfields Inc., priority 2020, published 2023):
# Assay: Effect of temperature (and pH) on the stability of the solution (purity)
# Type: physicochemical
# Details: 7% solution in water
smiles,measurement,setting,value
CCN(CC)CCOC(=O)Cc1ccc(C(=O)c2ccc(C)cc2)n1C.Cl,Purity(%) at day 0,"pH 1.0, day 0",97.4 ± 0.4%
same,Purity(%) at day 21 (5° C.),"pH 1.0, day 21, 5° C.",90.3 ± 0.3%
same,Purity(%) at day 21 (25° C.),"pH 1.0, day 21, 25° C.",65.5 ± 0.3%
same,Purity(%) at day 21 (40° C.),"pH 1.0, day 21, 40° C.",9.4 ± 0.3%
same,Purity (%) at day 21 (60° C.),"pH 1.0, day 21, 60° C.",0%
same,Purity(%) at day 0,"pH 2.0, day 0",97.6 ± 0.3%
same,Purity(%) at day 21 (5° C.),"pH 2.0, day 21, 5° C.",93.5 ± 0.3%
same,Purity(%) at day 21 (25° C.),"pH 2.0, day 21, 25° C.",78.1 ± 0.3%
same,Purity(%) at day 21 (40° C.),"pH 2.0, day 21, 40° C.",20.6 ± 0.3%
same,Purity (%) at day 21 (60° C.),"pH 2.0, day 21, 60° C.",0%
same,Purity(%) at day 0,"pH 3.0, day 0",97.8 ± 0.2%
same,Purity(%) at day 21 (5° C.),"pH 3.0, day 21, 5° C.",95.3 ± 0.3%
same,Purity(%) at day 21 (25° C.),"pH 3.0, day 21, 25° C.",91.2 ± 0.2%
same,Purity(%) at day 21 (40° C.),"pH 3.0, day 21, 40° C.",41.7 ± 0.2%
same,Purity (%) at day 21 (60° C.),"pH 3.0, day 21, 60° C.",0%
same,Purity(%) at day 0,"pH 3.7, day 0",97.9 ± 0.2%
same,Purity(%) at day 21 (5° C.),"pH 3.7, day 21, 5° C.",96.4 ± 0.2%
same,Purity(%) at day 21 (25° C.),"pH 3.7, day 21, 25° C.",95.6 ± 0.2%
same,Purity(%) at day 21 (40° C.),"pH 3.7, day 21, 40° C.",56.6 ± 0.2%
same,Purity (%) at day 21 (60° C.),"pH 3.7, day 21, 60° C.",11.5 ± 0.3%
same,Purity(%) at day 0,"pH 4.0, day 0",98.1 ± 0.1%
same,Purity(%) at day 21 (5° C.),"pH 4.0, day 21, 5° C.",96.8 ± 0.1%
same,Purity(%) at day 21 (25° C.),"pH 4.0, day 21, 25° C.",95.7 ± 0.2%
same,Purity(%) at day 21 (40° C.),"pH 4.0, day 21, 40° C.",58.3 ± 0.2%
same,Purity (%) at day 21 (60° C.),"pH 4.0, day 21, 60° C.",23.0 ± 0.3%
same,Purity(%) at day 0,"pH 4.3, day 0",98.1 ± 0.2%
same,Purity(%) at day 21 (5° C.),"pH 4.3, day 21, 5° C.",96.9 ± 0.1%
same,Purity(%) at day 21 (25° C.),"pH 4.3, day 21, 25° C.",95.4 ± 0.1%
same,Purity(%) at day 21 (40° C.),"pH 4.3, day 21, 40° C.",60.1 ± 0.1%
same,Purity (%) at day 21 (60° C.),"pH 4.3, day 21, 60° C.",25.8 ± 0.2%
same,Purity(%) at day 0,"pH 4.6, day 0",97.9 ± 0.1%
same,Purity(%) at day 21 (5° C.),"pH 4.6, day 21, 5° C.",96.3 ± 0.2%
same,Purity(%) at day 21 (25° C.),"pH 4.6, day 21, 25° C.",94.9 ± 0.2%
same,Purity(%) at day 21 (40° C.),"pH 4.6, day 21, 40° C.",55.3 ± 0.2%
same,Purity (%) at day 21 (60° C.),"pH 4.6, day 21, 60° C.",13.5 ± 0.3%
same,Purity(%) at day 0,"pH 5.0, day 0",97.8 ± 0.2%
same,Purity(%) at day 21 (5° C.),"pH 5.0, day 21, 5° C.",96.1 ± 0.2%
same,Purity(%) at day 21 (25° C.),"pH 5.0, day 21, 25° C.",92.1 ± 0.3%
same,Purity(%) at day 21 (40° C.),"pH 5.0, day 21, 40° C.",37.8 ± 0.3%
same,Purity (%) at day 21 (60° C.),"pH 5.0, day 21, 60° C.",1.7 ± 0.3%
same,Purity(%) at day 0,"pH 6.0, day 0",97.6 ± 0.3%
same,Purity(%) at day 21 (5° C.),"pH 6.0, day 21, 5° C.",94.4 ± 0.2%
same,Purity(%) at day 21 (25° C.),"pH 6.0, day 21, 25° C.",79.5 ± 0.3%
same,Purity(%) at day 21 (40° C.),"pH 6.0, day 21, 40° C.",19.5 ± 0.2%
same,Purity (%) at day 21 (60° C.),"pH 6.0, day 21, 60° C.",0%
same,Purity(%) at day 0,"pH 7.0, day 0",97.4 ± 0.3%
same,Purity(%) at day 21 (5° C.),"pH 7.0, day 21, 5° C.",90.0 ± 0.3%
same,Purity(%) at day 21 (25° C.),"pH 7.0, day 21, 25° C.",59.7 ± 0.3%
same,Purity(%) at day 21 (40° C.),"pH 7.0, day 21, 40° C.",5.7 ± 0.3%
same,Purity (%) at day 21 (60° C.),"pH 7.0, day 21, 60° C.",0%
same,Purity(%) at day 0,"pH 8.0, day 0",97.1 ± 0.3%
same,Purity(%) at day 21 (5° C.),"pH 8.0, day 21, 5° C.",78.1 ± 0.3%
same,Purity(%) at day 21 (25° C.),"pH 8.0, day 21, 25° C.",43.6 ± 0.4%
same,Purity(%) at day 21 (40° C.),"pH 8.0, day 21, 40° C.",0%
same,Purity (%) at day 21 (60° C.),"pH 8.0, day 21, 60° C.",0%
CCN(CC)CCOC(=O)CC1=C(C)C(=Cc2ccc([S+](C)[O-])cc2)c2ccc(F)cc21.Cl (centres unmarked),Purity(%) at day 0,"pH 1.0, day 0",97.2 ± 0.3%
same,Purity(%) at day 21 (5° C.),"pH 1.0, day 21, 5° C.",91.1 ± 0.4%
same,Purity(%) at day 21 (25° C.),"pH 1.0, day 21, 25° C.",67.5 ± 0.4%
same,Purity(%) at day 21 (40° C.),"pH 1.0, day 21, 40° C.",10.4 ± 0.4%
same,Purity (%) at day 21 (60° C.),"pH 1.0, day 21, 60° C.",0%
same,Purity(%) at day 0,"pH 2.0, day 0",97.3 ± 0.3%
same,Purity(%) at day 21 (5° C.),"pH 2.0, day 21, 5° C.",94.7 ± 0.3%
same,Purity(%) at day 21 (25° C.),"pH 2.0, day 21, 25° C.",81.1 ± 0.3%
same,Purity(%) at day 21 (40° C.),"pH 2.0, day 21, 40° C.",23.6 ± 0.3%
same,Purity (%) at day 21 (60° C.),"pH 2.0, day 21, 60° C.",0%
same,Purity(%) at day 0,"pH 3.0, day 0",97.6 ± 0.2%
same,Purity(%) at day 21 (5° C.),"pH 3.0, day 21, 5° C.",96.3 ± 0.2%
same,Purity(%) at day 21 (25° C.),"pH 3.0, day 21, 25° C.",92.2 ± 0.2%
same,Purity(%) at day 21 (40° C.),"pH 3.0, day 21, 40° C.",45.7 ± 0.3%
same,Purity (%) at day 21 (60° C.),"pH 3.0, day 21, 60° C.",0%
same,Purity(%) at day 0,"pH 3.7, day 0",97.6 ± 0.2%
same,Purity(%) at day 21 (5° C.),"pH 3.7, day 21, 5° C.",97.3 ± 0.2%
same,Purity(%) at day 21 (25° C.),"pH 3.7, day 21, 25° C.",96.8 ± 0.2%
same,Purity(%) at day 21 (40° C.),"pH 3.7, day 21, 40° C.",55.5 ± 0.2%
same,Purity (%) at day 21 (60° C.),"pH 3.7, day 21, 60° C.",13.5 ± 0.3%
same,Purity(%) at day 0,"pH 4.0, day 0",97.9 ± 0.1%
same,Purity(%) at day 21 (5° C.),"pH 4.0, day 21, 5° C.",97.4 ± 0.1%
same,Purity(%) at day 21 (25° C.),"pH 4.0, day 21, 25° C.",96.9 ± 0.1%
same,Purity(%) at day 21 (40° C.),"pH 4.0, day 21, 40° C.",60.3 ± 0.2%
same,Purity (%) at day 21 (60° C.),"pH 4.0, day 21, 60° C.",19.7 ± 0.3%
same,Purity(%) at day 0,"pH 4.3, day 0",97.7 ± 0.2%
same,Purity(%) at day 21 (5° C.),"pH 4.3, day 21, 5° C.",97.3 ± 0.1%
same,Purity(%) at day 21 (25° C.),"pH 4.3, day 21, 25° C.",96.7 ± 0.1%
same,Purity(%) at day 21 (40° C.),"pH 4.3, day 21, 40° C.",63.1 ± 0.1%
same,Purity (%) at day 21 (60° C.),"pH 4.3, day 21, 60° C.",16.8 ± 0.2%
same,Purity(%) at day 0,"pH 4.6, day 0",97.8 ± 0.1%
same,Purity(%) at day 21 (5° C.),"pH 4.6, day 21, 5° C.",97.3 ± 0.2%
same,Purity(%) at day 21 (25° C.),"pH 4.6, day 21, 25° C.",95.9 ± 0.2%
same,Purity(%) at day 21 (40° C.),"pH 4.6, day 21, 40° C.",57.3 ± 0.2%
same,Purity (%) at day 21 (60° C.),"pH 4.6, day 21, 60° C.",15.5 ± 0.3%
same,Purity(%) at day 0,"pH 5.0, day 0",97.7 ± 0.3%
same,Purity(%) at day 21 (5° C.),"pH 5.0, day 21, 5° C.",96.1 ± 0.2%
same,Purity(%) at day 21 (25° C.),"pH 5.0, day 21, 25° C.",93.9 ± 0.3%
same,Purity(%) at day 21 (40° C.),"pH 5.0, day 21, 40° C.",38.9 ± 0.3%
same,Purity (%) at day 21 (60° C.),"pH 5.0, day 21, 60° C.",1.5 ± 0.3%
same,Purity(%) at day 0,"pH 6.0, day 0",97.5 ± 0.3%
same,Purity(%) at day 21 (5° C.),"pH 6.0, day 21, 5° C.",94.4 ± 0.3%
same,Purity(%) at day 21 (25° C.),"pH 6.0, day 21, 25° C.",88.9 ± 0.2%
same,Purity(%) at day 21 (40° C.),"pH 6.0, day 21, 40° C.",21.6 ± 0.2%
same,Purity (%) at day 21 (60° C.),"pH 6.0, day 21, 60° C.",0%
same,Purity(%) at day 0,"pH 7.0, day 0",97.3 ± 0.3%
same,Purity(%) at day 21 (5° C.),"pH 7.0, day 21, 5° C.",89.0 ± 0.3%
same,Purity(%) at day 21 (25° C.),"pH 7.0, day 21, 25° C.",59.8 ± 0.3%
same,Purity(%) at day 21 (40° C.),"pH 7.0, day 21, 40° C.",5.4 ± 0.3%
same,Purity (%) at day 21 (60° C.),"pH 7.0, day 21, 60° C.",0%
same,Purity(%) at day 0,"pH 8.0, day 0",96.9 ± 0.4%
same,Purity(%) at day 21 (5° C.),"pH 8.0, day 21, 5° C.",77.1 ± 0.3%
same,Purity(%) at day 21 (25° C.),"pH 8.0, day 21, 25° C.",44.5 ± 0.4%
same,Purity(%) at day 21 (40° C.),"pH 8.0, day 21, 40° C.",0%
same,Purity (%) at day 21 (60° C.),"pH 8.0, day 21, 60° C.",0%
